Test results: patent publication US20260191965A1 (priority 2022, published 2026)

Legend:
[1] = test system: clinical isolates of Mycobacterium tuberculosis; assay: microbe, parasite or virus in culture; format: cell-based
[2] = test system: Mycobacterium tuberculosis H37Rv (ATCC 27294); format: cell-based

| Compound | MIC range against tuberculosis strains resistant to rifampicin and metronidazole [1] [mg/L] | effect on growth of rifamycin-sensitive and rifamycin-resistant tuberculosis strains under anaerobic conditions [2] |
| --- | --- | --- |
| CO[C@H]1/C=C/O[C@@]2(C)Oc3c(C)c(O)c4c(c3C2=O)C2=NC3(CCN(CCn5c([N+](=O)[O-])cnc5C)CC3)NC2=C(NC(=O)/C(C)=C\C=C\[C@H](C)[C@H](O)[C@@H](C)[C@@H](O)[C@@H](C)[C@H](OC(C)=O)[C@@H]1C)C4=O | 0.5 to 2 |  |
| Cc1ncc([N+](=O)[O-])n1CCO [Metronidazole, metronidazole] |  | a certain inhibitory effect |
